{"source": "the supplement of paper PMC10307832", "assay_in_all_cases": "relative viability (nuclei count vs DMSO), 5 days (fraction); higher = more cells survive", "key": {"NCI-H522": {"test_system": "NCI-H522", "procedure,_shortened": "(§1)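 Relative viability was taken as the ratio of nuclei in treated wells to nuclei in vehicle wells. Lung cancer cell lines in 1536-well plates received compounds by pin tool one day after seeding, either one drug alone or a fixed anchor-drug dose plus five library-drug doses (not always all listed) in √10 steps. Nuclei were counted on 4× images after 5 days of treatment, and values are medians of duplicate plates.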"}, "NCI-H1993": {"test_system": "NCI-H1993", "procedure,_shortened": "as §1"}, "NCI-H1648": {"test_system": "NCI-H1648", "procedure,_shortened": "as §1"}, "NCI-H596": {"test_system": "NCI-H596", "procedure,_shortened": "as §1"}, "NCI-H1623": {"test_system": "NCI-H1623", "procedure,_shortened": "as §1"}, "NCI-H23": {"test_system": "NCI-H23", "procedure,_shortened": "as §1"}, "A549": {"test_system": "A549", "procedure,_shortened": "as §1"}, "Calu-6": {"test_system": "Calu-6", "procedure,_shortened": "as §1"}, "EBC-1": {"test_system": "EBC-1", "procedure,_shortened": "as §1"}, "IA-LM": {"test_system": "IA-LM", "procedure,_shortened": "as §1"}, "NCI-H1703": {"test_system": "NCI-H1703", "procedure,_shortened": "as §1"}, "NCI-H1299": {"test_system": "NCI-H1299", "procedure,_shortened": "as §1"}}, "data": [{"molecule": "NC(=O)Nc1cc(-c2cccc(F)c2)sc1C(=O)N[C@H]1CCCNC1", "note": "[AZD7762] + COc1cccc2cc(-c3nc([C@H]4CC[C@H](C(=O)O)CC4)n4ncnc(N)c34)[nH]c12 [OSI-027] (partner 0.5 µM)", "values": [{"measurement": "relative viability", "setting": "NCI-H522; first compound 0.01 µM", "result": 0.711}, {"measurement": "relative viability", "setting": "NCI-H522; first compound 0.03162 µM", "result": 0.683}, {"measurement": "relative viability", "setting": "NCI-H522; first compound 0.1 µM", "result": 0.696}, {"measurement": "relative viability", "setting": "NCI-H522; first compound 0.3162 µM", "result": 0.755}, {"measurement": "relative viability", "setting": "NCI-H522; first compound 1 µM", "result": 0.807}, {"measurement": "relative viability", "setting": "NCI-H1993; first compound 0.01 µM", "result": 0.577}, {"measurement": "relative viability", "setting": "NCI-H1993; first compound 0.03162 µM", "result": 0.591}, {"measurement": "relative viability", "setting": "NCI-H1993; first compound 0.1 µM", "result": 0.58}, {"measurement": "relative viability", "setting": "NCI-H1993; first compound 0.3162 µM", "result": 0.532}, {"measurement": "relative viability", "setting": "NCI-H1993; first compound 1 µM", "result": 0.525}, {"measurement": "relative viability", "setting": "NCI-H1648; first compound 0.01 µM", "result": 0.244}, {"measurement": "relative viability", "setting": "NCI-H1648; first compound 0.03162 µM", "result": 0.257}, {"measurement": "relative viability", "setting": "NCI-H1648; first compound 0.1 µM", "result": 0.27}, {"measurement": "relative viability", "setting": "NCI-H1648; first compound 0.3162 µM", "result": 0.253}, {"measurement": "relative viability", "setting": "NCI-H1648; first compound 1 µM", "result": 0.294}, {"measurement": "relative viability", "setting": "NCI-H596; first compound 0.01 µM", "result": 0.702}, {"measurement": "relative viability", "setting": "NCI-H596; first compound 0.03162 µM", "result": 0.711}, {"measurement": "relative viability", "setting": "NCI-H596; first compound 0.1 µM", "result": 0.849}, {"measurement": "relative viability", "setting": "NCI-H596; first compound 0.3162 µM", "result": 0.673}, {"measurement": "relative viability", "setting": "NCI-H596; first compound 1 µM", "result": 0.686}, {"measurement": "relative viability", "setting": "NCI-H1623; first compound 0.01 µM", "result": 0.44}, {"measurement": "relative viability", "setting": "NCI-H1623; first compound 0.03162 µM", "result": 0.464}, {"measurement": "relative viability", "setting": "NCI-H1623; first compound 0.1 µM", "result": 0.414}, {"measurement": "relative viability", "setting": "NCI-H1623; first compound 0.3162 µM", "result": 0.424}, {"measurement": "relative viability", "setting": "NCI-H1623; first compound 1 µM", "result": 0.378}, {"measurement": "relative viability", "setting": "NCI-H23; first compound 0.01 µM", "result": 0.556}, {"measurement": "relative viability", "setting": "NCI-H23; first compound 0.03162 µM", "result": 0.567}, {"measurement": "relative viability", "setting": "NCI-H23; first compound 0.1 µM", "result": 0.652}, {"measurement": "relative viability", "setting": "NCI-H23; first compound 0.3162 µM", "result": 0.566}, {"measurement": "relative viability", "setting": "NCI-H23; first compound 1 µM", "result": 0.288}]}, {"molecule": "Oc1nc(-c2ccc(C(F)(F)F)cc2)nc2c1CSCC2", "note": "[XAV939] + COc1cc2c(Oc3ccc(NC(=O)C4(C(=O)Nc5ccc(F)cc5)CC4)cc3F)ccnc2cc1OCCCN1CCOCC1 [Foretinib] (partner 0.25 µM)", "values": [{"measurement": "relative viability", "setting": "A549; first compound 0.08 µM", "result": 0.992}, {"measurement": "relative viability", "setting": "A549; first compound 0.8 µM", "result": 0.883}, {"measurement": "relative viability", "setting": "A549; first compound 2.53 µM", "result": 0.9}, {"measurement": "relative viability", "setting": "Calu-6; first compound 0.08 µM", "result": 0.88}, {"measurement": "relative viability", "setting": "Calu-6; first compound 0.253 µM", "result": 0.704}, {"measurement": "relative viability", "setting": "Calu-6; first compound 0.8 µM", "result": 0.776}, {"measurement": "relative viability", "setting": "Calu-6; first compound 2.53 µM", "result": 0.819}, {"measurement": "relative viability", "setting": "EBC-1; first compound 0.08 µM", "result": 0.108}, {"measurement": "relative viability", "setting": "EBC-1; first compound 0.253 µM", "result": 0.113}, {"measurement": "relative viability", "setting": "EBC-1; first compound 0.8 µM", "result": 0.106}, {"measurement": "relative viability", "setting": "EBC-1; first compound 2.53 µM", "result": 0.0948}, {"measurement": "relative viability", "setting": "NCI-H1993; first compound 0.08 µM", "result": 0.753}, {"measurement": "relative viability", "setting": "NCI-H1993; first compound 0.253 µM", "result": 0.7}, {"measurement": "relative viability", "setting": "NCI-H1993; first compound 0.8 µM", "result": 0.688}, {"measurement": "relative viability", "setting": "NCI-H1993; first compound 2.53 µM", "result": 0.65}, {"measurement": "relative viability", "setting": "NCI-H596; first compound 0.08 µM", "result": 0.814}, {"measurement": "relative viability", "setting": "NCI-H596; first compound 0.253 µM", "result": 0.874}, {"measurement": "relative viability", "setting": "NCI-H596; first compound 0.8 µM", "result": 0.84}, {"measurement": "relative viability", "setting": "NCI-H596; first compound 2.53 µM", "result": 0.797}, {"measurement": "relative viability", "setting": "NCI-H1623; first compound 0.08 µM", "result": 0.826}, {"measurement": "relative viability", "setting": "NCI-H1623; first compound 0.253 µM", "result": 0.75}, {"measurement": "relative viability", "setting": "NCI-H1623; first compound 0.8 µM", "result": 0.703}, {"measurement": "relative viability", "setting": "NCI-H1623; first compound 2.53 µM", "result": 0.677}, {"measurement": "relative viability", "setting": "IA-LM; first compound 0.08 µM", "result": 1.29}, {"measurement": "relative viability", "setting": "IA-LM; first compound 0.253 µM", "result": 0.968}, {"measurement": "relative viability", "setting": "IA-LM; first compound 0.8 µM", "result": 1.09}, {"measurement": "relative viability", "setting": "IA-LM; first compound 2.53 µM", "result": 0.729}, {"measurement": "relative viability", "setting": "NCI-H23; first compound 0.08 µM", "result": 1.08}, {"measurement": "relative viability", "setting": "NCI-H23; first compound 0.253 µM", "result": 0.844}, {"measurement": "relative viability", "setting": "NCI-H23; first compound 0.8 µM", "result": 0.868}, {"measurement": "relative viability", "setting": "NCI-H23; first compound 2.53 µM", "result": 0.962}, {"measurement": "relative viability", "setting": "NCI-H1703; first compound 0.08 µM", "result": 0.348}, {"measurement": "relative viability", "setting": "NCI-H1703; first compound 0.253 µM", "result": 0.377}, {"measurement": "relative viability", "setting": "NCI-H1703; first compound 0.8 µM", "result": 0.416}, {"measurement": "relative viability", "setting": "NCI-H1703; first compound 2.53 µM", "result": 0.374}, {"measurement": "relative viability", "setting": "NCI-H1299; first compound 0.08 µM", "result": 1.13}, {"measurement": "relative viability", "setting": "NCI-H1299; first compound 0.253 µM", "result": 1.11}, {"measurement": "relative viability", "setting": "NCI-H1299; first compound 0.8 µM", "result": 1.07}, {"measurement": "relative viability", "setting": "NCI-H1299; first compound 2.53 µM", "result": 1.08}]}, {"molecule": "CC1(C)CCC(c2ccc(Cl)cc2)=C(CN2CCN(c3ccc(C(=O)NS(=O)(=O)c4ccc(N[C@H](CCN5CCOCC5)CSc5ccccc5)c(S(=O)(=O)C(F)(F)F)c4)cc3)CC2)C1", "note": "[Navitoclax] + COc1cccc2cc(-c3nc([C@H]4CC[C@H](C(=O)O)CC4)n4ncnc(N)c34)[nH]c12 [OSI-027] (partner 0.5 µM)", "values": [{"measurement": "relative viability", "setting": "NCI-H522; first compound 0.005 µM", "result": 0.605}, {"measurement": "relative viability", "setting": "NCI-H522; first compound 0.01581 µM", "result": 0.705}, {"measurement": "relative viability", "setting": "NCI-H522; first compound 0.05 µM", "result": 0.702}, {"measurement": "relative viability", "setting": "NCI-H522; first compound 0.1581 µM", "result": 0.685}, {"measurement": "relative viability", "setting": "NCI-H522; first compound 0.5 µM", "result": 0.747}, {"measurement": "relative viability", "setting": "NCI-H1993; first compound 0.005 µM", "result": 0.566}, {"measurement": "relative viability", "setting": "NCI-H1993; first compound 0.01581 µM", "result": 0.523}, {"measurement": "relative viability", "setting": "NCI-H1993; first compound 0.05 µM", "result": 0.551}, {"measurement": "relative viability", "setting": "NCI-H1993; first compound 0.1581 µM", "result": 0.523}, {"measurement": "relative viability", "setting": "NCI-H1993; first compound 0.5 µM", "result": 0.607}, {"measurement": "relative viability", "setting": "NCI-H1648; first compound 0.005 µM", "result": 0.257}, {"measurement": "relative viability", "setting": "NCI-H1648; first compound 0.01581 µM", "result": 0.256}, {"measurement": "relative viability", "setting": "NCI-H1648; first compound 0.1581 µM", "result": 0.253}, {"measurement": "relative viability", "setting": "NCI-H1648; first compound 0.5 µM", "result": 0.306}, {"measurement": "relative viability", "setting": "NCI-H596; first compound 0.005 µM", "result": 0.765}, {"measurement": "relative viability", "setting": "NCI-H596; first compound 0.01581 µM", "result": 0.684}, {"measurement": "relative viability", "setting": "NCI-H596; first compound 0.1581 µM", "result": 0.953}, {"measurement": "relative viability", "setting": "NCI-H596; first compound 0.5 µM", "result": 0.8}, {"measurement": "relative viability", "setting": "NCI-H1623; first compound 0.005 µM", "result": 0.419}, {"measurement": "relative viability", "setting": "NCI-H1623; first compound 0.01581 µM", "result": 0.376}, {"measurement": "relative viability", "setting": "NCI-H1623; first compound 0.05 µM", "result": 0.369}, {"measurement": "relative viability", "setting": "NCI-H1623; first compound 0.1581 µM", "result": 0.439}, {"measurement": "relative viability", "setting": "NCI-H1623; first compound 0.5 µM", "result": 0.373}, {"measurement": "relative viability", "setting": "NCI-H23; first compound 0.005 µM", "result": 0.704}, {"measurement": "relative viability", "setting": "NCI-H23; first compound 0.01581 µM", "result": 0.691}, {"measurement": "relative viability", "setting": "NCI-H23; first compound 0.05 µM", "result": 0.529}, {"measurement": "relative viability", "setting": "NCI-H23; first compound 0.1581 µM", "result": 0.582}, {"measurement": "relative viability", "setting": "NCI-H23; first compound 0.5 µM", "result": 0.63}]}]}
